These results are taken from patent US20140221414A1 (priority 2009, published 2014).

Converted amounts (≈) assume the structure as drawn. Where two headings read alike, the source gives them in different places.

For data set [1] the following is noted: oral 400 mg, healthy volunteers, cited from earlier work.
The subject of data set [2] is Escherichia coli Enterotoxigenic. Conditions: 97 strains; cited from earlier work.
A further data set relates to Salmonella species. The note with it: 46 strains; cited from earlier work.
In a further data set the test system is Campylobacter jejuni. Conditions: cited from earlier work.
Data set [3] has as its system MDCK (Mardin Darby Canine Kidney Cells) cells. In words: Permeability study using MDCK cells in transwell plates. The note with it: 10 μmolar apical, 37° C., 2 hours. The class given is in vitro ADME. Here is the method: Three well are to be used per sample. Plates are placed in shaking water bath at 37° C. for 2 hours. Take out 20 μl from apical and 100 μl from basolateral side for sample processing at […]. Lucifer Yellow is used as a marker to see the monolayer integrity of the cells. Propronalol is used as a permeability marker.
Relative area in apical remain 100% even after 2 hours.

In data set [4] the test system is Escherichia coli Enteroaggregative. Conditions: 75 strains; cited from earlier work.
The next data set has as its system Yersinia enterocolitica. Conditions: 74 strains; cited from earlier work.
In a further data set the test system is Shigella species. The note with it: 36 strains; cited from earlier work.
The next data set deals with Other. The note with it: 21 strains; cited from earlier work.
A further data set concerns Vibrio cholerae. Conditions: 403 strains; cited from earlier work.
The subject of another data set is E. Coli. Briefly: Anti-microbial activity by cup plate / well plate method (zone of inhibition). The class given is cell-based. The note with it: 200 μl per well, 37° C., 24 hrs. Here is the method:
The measurement of zone diameters estimates the susceptibility of bacteria to antimicrobial compounds.
Prepare a nutrient agar medium in distilled water and sterilize this media in autoclave at 121° C. for 15 min. Transfer this media aseptically in sterile petriplate, allow the media to solidify for few minutes. After solidification, add test micro-organism i.e. E. Coli (100 μl) in each plate and spread this culture with the help of spreader. Prepare the well in plate with the help of borer.

Another data set can be described thus: physchem. Conditions: thermodynamic from solid. The class given is physicochemical. The source says: Another embodiment relates to various methods for screening and analyzing methods and preparations that are intended to enhance the dissolution of poorly soluble drugs. These analysis methods include dissolution studies, saturation solubility studies, wettability studies, permeation studies, X-ray diffraction studies etc.

Another data set relates to Helicobacter pylori. The note with it: 40 strains; MIC50 instead of MIC90; cited from earlier work.

Regarding `CO[C@H]1/C=C/O[C@@]2(C)Oc3c(C)c(O)c4c(O)c(c5c(nc6cc(C)ccn65)c4c3C2=O)NC(=O)/C(C)=C\C=C\[C@H](C)[C@H](O)[C@@H](C)[C@@H](O)[C@@H](C)[C@H](OC(C)=O)[C@@H]1C` [14C-rifaximin], in data set [1] (almost entirely as unchanged drug), the “dose recovered in feces” value is “approximately 97%”. The “dose recovered in the urine” value in [1] is 0.32%.

Take `CO[C@H]1/C=C/O[C@@]2(C)Oc3c(C)c(O)c4c(O)c(c5c(nc6cc(C)ccn65)c4c3C2=O)NC(=O)/C(C)=C\C=C\[C@H](C)[C@H](O)[C@@H](C)[C@@H](O)[C@@H](C)[C@H](OC(C)=O)[C@@H]1C` [rifaximin]: the MIC90 in [2] is 32 µg/mL (≈ 40.7 µM); with Salmonella species, 64 µg/mL (≈ 81.4 µM); with Campylobacter jejuni (9 strains), 32 µg/mL (≈ 40.7 µM); in the data set on Campylobacter jejuni (54 strains), 128 µg/mL (≈ 163 µM); in [4], 32 µg/mL (≈ 40.7 µM); in the data set on Yersinia enterocolitica it was 16 µg/mL (≈ 20.4 µM). The figures for the MIC90 in the data set with Shigella species, in the data set on Other and in the data set on Vibrio cholerae were 64 µg/mL (≈ 81.4 µM), 4 µg/mL (≈ 5.09 µM) and 4 µg/mL (≈ 5.09 µM), respectively. Also, the “amount found in the basolateral side of the transwell (apparent permeability)” value in data set [3] is “No detectable amount”. The “area of zone of inhibition” value with E. Coli is “very negligible”. The solubility in “physchem” (pH 6.8, aqueous buffer) was 10 µg/mL (≈ 12.7 µM); in the data set “physchem” (water), below 10 µg/mL. Further, in the data set with Helicobacter pylori, the MIC50 is 4 (MIC50) μg/ml.

What is called solubility is how much of the substance goes into solution per volume. Read a low solubility as a poorly soluble substance.
